In one assay the test system is C33A (HPV−) cells. The assay is described as follows: Cell proliferation/viability assay, C33A cells. The format is cell-based. As to conditions: Homo sapiens, C-33-A, 96 h, read-out: C33A (HPV−) Proliferation IC50 (μM). In outline: (§1)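 Cells plated in antibiotic-free growth medium, compound added 2 h later (0.5% DMSO final) and incubated 4 days at 37 °C. Viability by CellTiter Blue (ex 530/em 590 nm) or CellTiter Glo luminescence; IC50 from four-parameter logistic fit of % inhibition.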

A further assay concerns Caski (HPV16+) cells. The assay is described as follows: Cell proliferation/viability assay, Caski cells. The format is cell-based. As to conditions: Homo sapiens, Ca-Ski, 96 h, 4 days. In outline:
as §1

Our source for the IC50 values is patent publication US10517870B2, “Aryl substituted bicycle heteroaryl compounds” (Bristol-Myers Squibb Company, priority 2015, dated 2019).

For the compound `COc1ccc(-c2cc(C)cc3nc(OC(F)F)cnc23)cc1` [Example 6, 2-(difluoromethoxy)-5-(4-methoxyphenyl)-7-methylquinoxaline], the IC50 with C33A (HPV−) cells amounted to 44.8 µM; in the assay with Caski (HPV16+) cells, 7.1 µM.
